Experiments:
[1] = test system: microfilariae of Dirofilaria immitis; assay: Dirofilaria immitis, Microfilaria (DiMF) In vitro Assay; format: cell-based; conditions: 72 h, read-out: DiMF Minimum Effective Dose (MED), approximately 72 hours incubation, microfilariae assessed for survival or paralysis
[2] = test system: third stage larvae of Haemonchus contortus; assay: Haemonchus contortus L3 (HcL3) Assay; format: cell-based; conditions: 96 h, read-out: HcL3 Minimum Effective Dose (MED)

Structure (SMILES) | minimal effective concentration [1] [µM] | minimal effective concentration [2] [µM]
CC(C)C[C@H]1C(=O)O[C@H](Cc2ccc(Cn3cc(CO)cn3)cc2)C(=O)N(C)[C@@H](CC(C)C)C(=O)O[C@H](C)C(=O)N(C)[C@@H](CC(C)C)C(=O)O[C@H](Cc2ccccc2)C(=O)N(C)[C@@H](CC(C)C)C(=O)O[C@H](C)C(=O)N1C [Example 2-19, (3S,6R,9S,12R,15S,18R,21S,24R)-6-benzyl-18-(4-((4-(hydroxymethyl)-1H-pyrazol-1-yl)methyl)benzyl)-3,9,15,21-tetraisobutyl-4,10,12,16,22,24-hexamethyl-1,7,13,19-tetraoxa-4,10,16,22-tetraazacyclotetracosan-2,5,8,11,14,17,20,23-octaone] | 0.001 to 0.01 | 1 to 10
CC(C)C[C@H]1C(=O)O[C@H](Cc2ccc(Cn3cc(-c4ccncn4)cn3)cc2)C(=O)N(C)[C@@H](CC(C)C)C(=O)O[C@H](C)C(=O)N(C)[C@@H](CC(C)C)C(=O)O[C@H](Cc2ccccc2)C(=O)N(C)[C@@H](CC(C)C)C(=O)O[C@H](C)C(=O)N1C [Example 2-45, (3S,6R,9S,12R,15S,18R,21S,24R)-6-benzyl-3,9,15,21-tetraisobutyl-4,10,12,16,22,24-hexamethyl-18-(4-((4-(pyrimidin-4-yl)-1H-pyrazol-1-yl)methyl)benzyl)-1,7,13,19-tetraoxa-4,10,16,22-tetraazacyclotetracosan-2,5,8,11,14,17,20,23-octaone] | 0.001 to 0.01 | 1 to 10
CC(C)C[C@H]1C(=O)O[C@H](Cc2ccc(Cn3nccc3C(C)(C)C)cc2)C(=O)N(C)[C@@H](CC(C)C)C(=O)O[C@H](C)C(=O)N(C)[C@@H](CC(C)C)C(=O)O[C@H](Cc2ccccc2)C(=O)N(C)[C@@H](CC(C)C)C(=O)O[C@H](C)C(=O)N1C [Example 2-68, (3S,6R,9S,12R,15S,18R,21S,24R)-6-benzyl-18-(4-((5-(tert-butyl)-1H-pyrazol-1-yl)methyl)benzyl)-3,9,15,21-tetraisobutyl-4,10,12,16,22,24-hexamethyl-1,7,13,19-tetraoxa-4,10,16,22-tetraazacyclotetracosan-2,5,8,11,14,17,20,23-octaone] | 0.01 to 0.1 | 1 to 10
CC(C)C[C@H]1C(=O)O[C@H](Cc2ccc(Cn3ccc(C4CC4)n3)cc2)C(=O)N(C)[C@@H](CC(C)C)C(=O)O[C@H](C)C(=O)N(C)[C@@H](CC(C)C)C(=O)O[C@H](Cc2ccccc2)C(=O)N(C)[C@@H](CC(C)C)C(=O)O[C@H](C)C(=O)N1C [Example 2-74, (3S,6R,9S,12R,15S,18R,21S,24R)-6-benzyl-18-(4-((3-cyclopropyl-1H-pyrazol-1-yl)methyl)benzyl)-3,9,15,21-tetraisobutyl-4,10,12,16,22,24-hexamethyl-1,7,13,19-tetraoxa-4,10,16,22-tetraazacyclotetracosan-2,5,8,11,14,17,20,23-octaone] | 0.001 to 0.01 | 1 to 10
Cc1nn(Cc2ccc(C[C@H]3OC(=O)[C@H](CC(C)C)N(C)C(=O)[C@@H](C)OC(=O)[C@H](CC(C)C)N(C)C(=O)[C@@H](Cc4ccccc4)OC(=O)[C@H](CC(C)C)N(C)C(=O)[C@@H](C)OC(=O)[C@H](CC(C)C)N(C)C3=O)cc2)c(C)c1F [Example 2-79, (3S,6R,9S,12R,15S,18R,21S,24R)-6-benzyl-18-(4-((4-fluoro-3,5-dimethyl-1H-pyrazol-1-yl)methyl)benzyl)-3,9,15,21-tetraisobutyl-4,10,12,16,22,24-hexamethyl-1,7,13,19-tetraoxa-4,10,16,22-tetraazacyclotetracosan-2,5,8,11,14,17,20,23-octaone] | 0.01 to 0.1 | 1 to 10
CC(C)C[C@H]1C(=O)O[C@H](Cc2ccc(Cn3ccc(N)n3)cc2)C(=O)N(C)[C@@H](CC(C)C)C(=O)O[C@H](C)C(=O)N(C)[C@@H](CC(C)C)C(=O)O[C@H](Cc2ccccc2)C(=O)N(C)[C@@H](CC(C)C)C(=O)O[C@H](C)C(=O)N1C [Example 2-87, (3S,6R,9S,12R,15S,18R,21S,24R)-6-(4-((3-amino-1H-pyrazol-1-yl)methyl)benzyl)-18-benzyl-3,9,15,21-tetraisobutyl-4,10,12,16,22,24-hexamethyl-1,7,13,19-tetraoxa-4,10,16,22-tetraazacyclotetracosan-2,5,8,11,14,17,20,23-octaone] | 0.001 to 0.01 | 1 to 10
CC(C)C[C@H]1C(=O)O[C@H](Cc2ccc(Cn3ccnc3C3CC3)cc2)C(=O)N(C)[C@@H](CC(C)C)C(=O)O[C@H](C)C(=O)N(C)[C@@H](CC(C)C)C(=O)O[C@H](Cc2ccc(Cn3ccnc3C3CC3)cc2)C(=O)N(C)[C@@H](CC(C)C)C(=O)O[C@H](C)C(=O)N1C [Example 6-7, (3S,6R,9S,12R,15S,18R,21S,24R)-6,18-bis[[4-[(2-cyclopropylimidazol-1-yl)methyl]phenyl]methyl]-3,9,15,21-tetraisobutyl-4,10,12,16,22,24-hexamethyl-1,7,13,19-tetraoxa-4,10,16,22-tetrazacyclotetracosane-2,5,8,11,14,17,20,23-octaone] | 0.01 to 0.1 | 1 to 10
CCOCc1nccn1Cc1ccc(C[C@H]2OC(=O)[C@H](CC(C)C)N(C)C(=O)[C@@H](C)OC(=O)[C@H](CC(C)C)N(C)C(=O)[C@@H](Cc3ccc(Cn4ccnc4COCC)cc3)OC(=O)[C@H](CC(C)C)N(C)C(=O)[C@@H](C)OC(=O)[C@H](CC(C)C)N(C)C2=O)cc1 [Example 6-20, (3S,6R,9S,12R,15S,18R,21S,24R)-6,18-bis(4-((2-(ethoxymethyl)-1H-imidazol-1-yl)methyl)benzyl)-3,9,15,21-tetraisobutyl-4,10,12,16,22,24-hexamethyl-1,7,13,19-tetraoxa-4,10,16,22-tetraazacyclotetracosan-2,5,8,11,14,17,20,23-octaone] | 0.001 to 0.01 | 1 to 10
CCc1nccn1Cc1ccc(C[C@H]2OC(=O)[C@H](CC(C)C)N(C)C(=O)[C@@H](C)OC(=O)[C@H](CC(C)C)N(C)C(=O)[C@@H](Cc3ccccc3)OC(=O)[C@H](CC(C)C)N(C)C(=O)[C@@H](C)OC(=O)[C@H](CC(C)C)N(C)C2=O)cc1 [Example 8-4, (3S,6R,9S,12R,15S,18R,21S,24R)-6-benzyl-18-[[4-[(2-ethylimidazol-1-yl)methyl]phenyl]methyl]-3,9,15,21-tetraisobutyl-4,10,12,16,22,24-hexamethyl-1,7,13,19-tetraoxa-4,10,16,22-tetrazacyclotetracosane-2,5,8,11,14,17,20,23-octaone] | 0.01 to 0.1 | 1 to 10
CC(C)C[C@H]1C(=O)O[C@H](Cc2ccc(Cn3ccnc3C(C)(C)C)cc2)C(=O)N(C)[C@@H](CC(C)C)C(=O)O[C@H](C)C(=O)N(C)[C@@H](CC(C)C)C(=O)O[C@H](Cc2ccccc2)C(=O)N(C)[C@@H](CC(C)C)C(=O)O[C@H](C)C(=O)N1C [Example 8-6, (3S,6R,9S,12R,15S,18R,21S,24R)-6-benzyl-18-[[4-[(2-tert-butylimidazol-1-yl)methyl]phenyl]methyl]-3,9,15,21-tetraisobutyl-4,10,12,16,22,24-hexamethyl-1,7,13,19-tetraoxa-4,10,16,22-tetrazacyclotetracosane-2,5,8,11,14,17,20,23-octaone] | 0.01 to 0.1 | 1 to 10
CC(C)C[C@H]1C(=O)O[C@H](Cc2ccc(Cn3ccnc3C3CC3)cc2)C(=O)N(C)[C@@H](CC(C)C)C(=O)O[C@H](C)C(=O)N(C)[C@@H](CC(C)C)C(=O)O[C@H](Cc2ccccc2)C(=O)N(C)[C@@H](CC(C)C)C(=O)O[C@H](C)C(=O)N1C [Example 8-7, (3S,6R,9S,12R,15S,18R,21S,24R)-6-benzyl-18-[[4-[(2-cyclopropylimidazol-1-yl)methyl]phenyl]methyl]-3,9,15,21-tetraisobutyl-4,10,12,16,22,24-hexamethyl-1,7,13,19-tetraoxa-4,10,16,22-tetrazacyclotetracosane-2,5,8,11,14,17,20,23-octaone] | 0.001 to 0.01 | 1 to 10
CC(C)C[C@H]1C(=O)O[C@H](Cc2ccc(Cn3ccnc3C(C)C)cc2)C(=O)N(C)[C@@H](CC(C)C)C(=O)O[C@H](C)C(=O)N(C)[C@@H](CC(C)C)C(=O)O[C@H](Cc2ccccc2)C(=O)N(C)[C@@H](CC(C)C)C(=O)O[C@H](C)C(=O)N1C [Example 8-8, (3S,6R,9S,12R,15S,18R,21S,24R)-6-benzyl-3,9,15,21-tetraisobutyl-18-(4-((2-isopropyl-1H-imidazol-1-yl)methyl)benzyl)-4,10,12,16,22,24-hexamethyl-1,7,13,19-tetraoxa-4,10,16,22-tetraazacyclotetracosan-2,5,8,11,14,17,20,23-octaone] | 0.001 to 0.01 | 1 to 10
CC(C)C[C@H]1C(=O)O[C@H](Cc2ccc(Cn3ccnc3CO)cc2)C(=O)N(C)[C@@H](CC(C)C)C(=O)O[C@H](C)C(=O)N(C)[C@@H](CC(C)C)C(=O)O[C@H](Cc2ccccc2)C(=O)N(C)[C@@H](CC(C)C)C(=O)O[C@H](C)C(=O)N1C [Example 8-13, (3S,6R,9S,12R,15S,18R,21S,24R)-6-benzyl-18-(4-((2-(hydroxymethyl)-1H-imidazol-1-yl)methyl)benzyl)-3,9,15,21-tetraisobutyl-4,10,12,16,22,24-hexamethyl-1,7,13,19-tetraoxa-4,10,16,22-tetraazacyclotetracosan-2,5,8,11,14,17,20,23-octaone] | 0.001 to 0.01 | 1 to 10
CC(C)C[C@H]1C(=O)O[C@H](Cc2ccc(Cn3ccnn3)cc2)C(=O)N(C)[C@@H](CC(C)C)C(=O)O[C@H](C)C(=O)N(C)[C@@H](CC(C)C)C(=O)O[C@H](Cc2ccc(Cn3ccnn3)cc2)C(=O)N(C)[C@@H](CC(C)C)C(=O)O[C@H](C)C(=O)N1C [Example 9-6, (3S,6R,9S,12R,15S,18R,21S,24R)-6,18-bis(4-((1H-1,2,3-triazol-1-yl)methyl)benzyl)-3,9,15,21-tetraisobutyl-4,10,12,16,22,24-hexamethyl-1,7,13,19-tetraoxa-4,10,16,22-tetraazacyclotetracosan-2,5,8,11,14,17,20,23-octaone] | 0.001 to 0.01 | 1 to 10

Reference: patent US11331369B2, “Endoparasitic depsipeptides” (Zoetis Services LLC, priority 2017, dated 2022)
